According to publication PMC9207808 (ACS Chemical Biology, 2022):
Residues, ends and D or L forms follow the SMILES beside them.

Columns and labels:
DocSTm [1] = assay: Differential scanning fluorimetry (thermal stabilisation of Doc); type: binding, S. Typhimurium; conditions: for melting temperature shift ΔTm: DSF, DocSTm 5 μM, analyte 50 μM, Tm with analyte minus Tm of free DocSTm (42.9 ± 0.9 °C), SYPRO Orange, 20 mM K2HPO4, 50 mM (NH4)2SO4, pH 8.0, triplicate; for Average Tm / Tm: DocSTm 5 µM + 50 µM binder; for Average Tm: average of 3 replicates
Protocol: Experiments were performed in a Mx3005P qPCR System (Agilent) collecting fluorescence data with a temperature ramp of 25 to 95 °C. Samples were prepared in a buffer containing 20 mM K2HPO4 and 50 mM (NH4)2SO4 at pH 8.0. The SYPRO Orange dye (Sigma-Aldrich, 5000× stock in DMSO) was used to monitor protein denaturation and was diluted to a final concentration of 3×. For binding experiments, the final concentration of Doc was 5 μM. Each condition was performed in triplicate (ESI section 4) and the melting curves were plotted using GraphPad Prism 5 (GraphPad Software, U.S.A.). The melting temperatures were obtained by fitting the sigmoidal section of the curves to a Boltzmann sigmoid function.

DocSTm [2] = assay: Surface plasmon resonance binding to immobilised Doc; design: species or system S. Typhimurium; conditions: for koff × 10^-6 / kon × 10^6: 1:1 kinetic fit, mean ± SD of at least 3 replicates; for kon × 10^6: single-cycle kinetics (multicycle for PhdSTm1-73); for Half-life of the complex: t1/2 = ln2 / koff
Protocol: Experiments were performed in a Biacore S200 (Cytiva) with a Series S sensor chip NTA (Cytiva). The data was analyzed using the Biacore Evaluation Software (Cytiva) and curves were plotted using GraphPad Prism 5 (GraphPad Software, U.S.A.). All experiments were performed at 22 °C with a running buffer containing 10 mM HEPES, 500 mM NaCl, 50 μM EDTA, and 0.005% (v/v) TWEEN 20 at pH 8.0. The surface was conditioned following the standard manufacturer’s guidelines and protein immobilization was performed with a 30–60 s pulse (flow rate of 5 μL/min) of Doc (150 nM) in running buffer. […] Surface regeneration was performed with a 1 min pulse of 0.5 M imidazole followed by a 1 min pulse of 0.35 M of EDTA at pH 8.0.
Binding to Doc was performed using a multicycle kinetics (MCK) setup for peptides 7, 10, and 14, while the remaining samples were tested using a single-cycle kinetics (SCK) setup. The surface was fully regenerated in between each analyte in both cases. In the MCK experiments, increasing concentrations of each analyte were injected with an 80 s pulse (30 μL/min) and dissociation times varied depending on the time required to fully dissociate the complex. The double-referenced sensorgrams (raw data subtracted from a blank injection and reference surface responses) were analyzed using a kinetic and/or a steady-state 1:1 binding model. In the SCK experiments, typically six concentrations of each analyte were sequentially injected with 80 s pulses (30 μL/min), and dissociation times varied depending on the time required to dissociate at least 5% of the complex. The double-referenced sensorgrams were fitted using a kinetic 1:1 binding model.
At least three independent replicates were measured for each analyte (ESI section 5). When a steady-state fit was applied, the reported Kd and its uncertainty correspond, respectively, to the average and standard deviations of the Kd obtained in each measurement. When a kinetic fit was applied, the reported rate constants (kon and koff) and their uncertainties correspond, respectively, to the average and standard deviations of the rate constants obtained in each measurement. In this case, reported Kd were calculated using the equation below, and the standard deviation of the rate constants was propagated. [drawing 1]

[3] = SPR, kinetic fit, KD calculated from mean koff and kon, SD propagated, 22 °C, pH 8.0

| SMILES | melting temperature shift ΔTm (DocSTm [1]) [°C] | Average Tm (DocSTm [1]) [°C] | Tm (DocSTm [1]; replicate 1) [°C] | Tm (DocSTm [1]; replicate 2) [°C] | Tm (DocSTm [1]; replicate 3) [°C] | Kd (DocSTm [2]; SPR kinetic fit, replicate 1) [nM] | Kd (DocSTm [2]; SPR kinetic fit, replicate 2) [nM] | Kd (DocSTm [2]; SPR kinetic fit, replicate 3) [nM] | koff × 10^-6 (DocSTm [2]; SPR, 22 °C, pH 8.0) | kon × 10^6 (DocSTm [2]; SPR, 22 °C, pH 8.0) | Kd (DocSTm [2]; [3]) [nM] | Half-life of the complex (DocSTm [2]) [h] | Kd (DocSTm [2]; SPR kinetic fit, replicate 4) [nM] |
| --- | --- | --- | --- | --- | --- | --- | --- | --- | --- | --- | --- | --- | --- |
| CC[C@H](C)[C@H](NC(=O)[C@H](C)NC(=O)[C@H](C)NC(=O)[C@H](Cc1ccccc1)NC(=O)[C@H](C)NC(=O)[C@H](CC(=O)O)NC(=O)[C@H](CC(=O)O)NC(=O)[C@H](CCSC)NC(=O)[C@H](Cc1c[nH]c2ccccc12)NC(C)=O)C(=O)N[C@@H](CCSC)C(=O)N[C@@H](C)C(=O)N[C@H](C(=O)N[C@@H](Cc1c[nH]cn1)C(=O)NCC(=O)N[C@@H](CC(N)=O)C(=O)N[C@@H](CCC(=O)O)C(=O)N[C@@H](CC(C)C)C(=O)N[C@@H](CCCNC(=N)N)C(=O)N[C@@H](CCC(=O)O)C(=O)N[C@@H](CC(C)C)C(=O)N[C@@H](C)C(=O)N[C@@H](CC(=O)O)C(=O)N[C@@H](CCCCN)C(=O)O)C(C)C [peptide 5] (Ac-WMDDAFAAIMAVHGNELRELADK-OH; C-terminus assumed) | 23.4 ± 0.9 | 66.3 ± 0.1 | 66.3 | 66.3 | 66.2 | 0.0489 | 0.0513 | 0.0469 | 75 ± 5 ×10^-6 s-1 | 1.542 ± 0.147 ×10^6 M-1 s-1 | 0.049 ± 0.006 | 2.6 ± 0.2 | – |
| CC[C@H](C)[C@H](NC(=O)[C@H](C)NC(=O)[C@H](C)NC(=O)[C@H](Cc1ccccc1)NC(=O)[C@H](CCC(=O)O)NC(=O)[C@H](CC(=O)O)NC(=O)[C@H](CC(=O)O)NC(=O)[C@H](CCSC)NC(=O)[C@H](Cc1c[nH]c2ccccc12)NC(C)=O)C(=O)N[C@@H](CCSC)C(=O)N[C@@H](C)C(=O)N[C@H](C(=O)N[C@@H](Cc1c[nH]cn1)C(=O)NCC(=O)N[C@@H](CC(N)=O)C(=O)N[C@@H](CCC(=O)O)C(=O)N[C@@H](CC(C)C)C(=O)N[C@@H](CCCNC(=N)N)C(=O)N[C@@H](CCC(=O)O)C(=O)N[C@@H](CC(C)C)C(=O)N[C@@H](C)C(=O)N[C@@H](C)C(=O)N[C@@H](CCCCN)C(=O)O)C(C)C [peptide 18] (Ac-WMDDEFAAIMAVHGNELRELAAK-OH; C-terminus assumed) | 28.0 ± 0.9 | 70.9 ± 0.3 | 71.1 | 71.0 | 70.6 | 0.0532 | 0.0189 | 0.0385 | 84 ± 33 ×10^-6 s-1 | 2.508 ± 0.964 ×10^6 M-1 s-1 | 0.033 ± 0.018 | 2.3 ± 0.9 | – |
| CC[C@H](C)[C@H](NC(=O)[C@H](C)NC(=O)[C@H](C)NC(=O)[C@H](Cc1ccccc1)NC(=O)[C@H](CCC(=O)O)NC(=O)[C@H](CC(=O)O)NC(=O)[C@H](CC(=O)O)NC(=O)[C@H](CCSC)NC(=O)[C@H](Cc1c[nH]c2ccccc12)NC(C)=O)C(=O)N[C@@H](CCSC)C(=O)N[C@@H](C)C(=O)N[C@H](C(=O)N[C@@H](Cc1c[nH]cn1)C(=O)NCC(=O)N[C@@H](CC(N)=O)C(=O)N[C@@H](CCC(=O)O)C(=O)N[C@@H](CC(C)C)C(=O)N[C@@H](C)C(=O)N[C@@H](CCC(=O)O)C(=O)N[C@@H](CC(C)C)C(=O)N[C@@H](C)C(=O)N[C@@H](CC(=O)O)C(=O)N[C@@H](CCCCN)C(=O)O)C(C)C [peptide 15] (Ac-WMDDEFAAIMAVHGNELAELADK-OH; C-terminus assumed) | 27.7 ± 0.9 | 70.6 ± 0.1 | 70.6 | 70.7 | 70.4 | 0.124 | 0.106 | 0.112 | 185 ± 52 ×10^-6 s-1 | 1.602 ± 0.332 ×10^6 M-1 s-1 | 0.115 ± 0.04 | 1.0 ± 0.3 | – |
| CC[C@H](C)[C@H](NC(=O)[C@H](C)NC(=O)[C@H](C)NC(=O)[C@H](Cc1ccccc1)NC(=O)[C@H](CCC(=O)O)NC(=O)[C@H](CC(=O)O)NC(=O)[C@H](CC(=O)O)NC(=O)[C@H](CCSC)NC(=O)[C@H](Cc1c[nH]c2ccccc12)NC(C)=O)C(=O)N[C@@H](CCSC)C(=O)N[C@@H](C)C(=O)N[C@H](C(=O)N[C@@H](Cc1c[nH]cn1)C(=O)NCC(=O)N[C@@H](C)C(=O)N[C@@H](CCC(=O)O)C(=O)N[C@@H](CC(C)C)C(=O)N[C@@H](CCCNC(=N)N)C(=O)N[C@@H](CCC(=O)O)C(=O)N[C@@H](CC(C)C)C(=O)N[C@@H](C)C(=O)N[C@@H](CC(=O)O)C(=O)N[C@@H](CCCCN)C(=O)O)C(C)C [peptide 12] (Ac-WMDDEFAAIMAVHGAELRELADK-OH; C-terminus assumed) | 28.2 ± 1.2 | 71.1 ± 0.7 | 71.8 | 71.0 | 70.4 | 0.251 | 0.166 | 0.0853 | 203 ± 103 ×10^-6 s-1 | 1.396 ± 0.154 ×10^6 M-1 s-1 | 0.145 ± 0.076 | 1.0 ± 0.5 | 0.0833 |
| CC[C@H](C)[C@H](NC(=O)[C@H](C)NC(=O)[C@H](C)NC(=O)[C@H](Cc1ccccc1)NC(=O)[C@H](CCC(=O)O)NC(=O)[C@H](CC(=O)O)NC(=O)[C@H](CC(=O)O)NC(=O)[C@H](C)NC(=O)[C@H](Cc1c[nH]c2ccccc12)NC(C)=O)C(=O)N[C@@H](CCSC)C(=O)N[C@@H](C)C(=O)N[C@H](C(=O)N[C@@H](Cc1c[nH]cn1)C(=O)NCC(=O)N[C@@H](CC(N)=O)C(=O)N[C@@H](CCC(=O)O)C(=O)N[C@@H](CC(C)C)C(=O)N[C@@H](CCCNC(=N)N)C(=O)N[C@@H](CCC(=O)O)C(=O)N[C@@H](CC(C)C)C(=O)N[C@@H](C)C(=O)N[C@@H](CC(=O)O)C(=O)N[C@@H](CCCCN)C(=O)O)C(C)C [peptide 2] (Ac-WADDEFAAIMAVHGNELRELADK-OH; C-terminus assumed) | 28.0 ± 1.0 | 70.9 ± 0.4 | 71.3 | 70.8 | 70.6 | 0.0523 | 0.0478 | 0.0551 | 59 ± 11 ×10^-6 s-1 | 1.136 ± 0.140 ×10^6 M-1 s-1 | 0.052 ± 0.012 | 3.3 ± 0.6 | – |
| CC[C@H](C)[C@H](NC(=O)[C@H](C)NC(=O)[C@H](C)NC(=O)[C@H](Cc1ccccc1)NC(=O)[C@H](CCC(=O)O)NC(=O)[C@H](CC(=O)O)NC(=O)[C@H](CC(=O)O)NC(=O)[C@H](CCSC)NC(=O)[C@H](Cc1c[nH]c2ccccc12)NC(C)=O)C(=O)N[C@@H](CCSC)C(=O)N[C@@H](C)C(=O)N[C@H](C(=O)N[C@@H](Cc1c[nH]cn1)C(=O)N[C@@H](C)C(=O)N[C@@H](CC(N)=O)C(=O)N[C@@H](CCC(=O)O)C(=O)N[C@@H](CC(C)C)C(=O)N[C@@H](CCCNC(=N)N)C(=O)N[C@@H](CCC(=O)O)C(=O)N[C@@H](CC(C)C)C(=O)N[C@@H](C)C(=O)N[C@@H](CC(=O)O)C(=O)N[C@@H](CCCCN)C(=O)O)C(C)C [peptide 11] (Ac-WMDDEFAAIMAVHANELRELADK-OH; C-terminus assumed) | – | 69.0 ± 0.2 | 68.8 | 69.2 | 68.9 | 0.13 | 0.0743 | 0.0769 | 197 ± 49 ×10^-6 s-1 | 2.350 ± 1.103 ×10^6 M-1 s-1 | 0.084 ± 0.045 | 1.0 ± 0.2 | – |
